# pKi: −log10 of the molar value.
# Key:
# [1] = target: T1, IKKα (Homo sapiens, UniProt O15111); assay: in-house DELFIA kinase assay, IKKα; assay type: biochemical
# T1 sequence (O15111 1-745): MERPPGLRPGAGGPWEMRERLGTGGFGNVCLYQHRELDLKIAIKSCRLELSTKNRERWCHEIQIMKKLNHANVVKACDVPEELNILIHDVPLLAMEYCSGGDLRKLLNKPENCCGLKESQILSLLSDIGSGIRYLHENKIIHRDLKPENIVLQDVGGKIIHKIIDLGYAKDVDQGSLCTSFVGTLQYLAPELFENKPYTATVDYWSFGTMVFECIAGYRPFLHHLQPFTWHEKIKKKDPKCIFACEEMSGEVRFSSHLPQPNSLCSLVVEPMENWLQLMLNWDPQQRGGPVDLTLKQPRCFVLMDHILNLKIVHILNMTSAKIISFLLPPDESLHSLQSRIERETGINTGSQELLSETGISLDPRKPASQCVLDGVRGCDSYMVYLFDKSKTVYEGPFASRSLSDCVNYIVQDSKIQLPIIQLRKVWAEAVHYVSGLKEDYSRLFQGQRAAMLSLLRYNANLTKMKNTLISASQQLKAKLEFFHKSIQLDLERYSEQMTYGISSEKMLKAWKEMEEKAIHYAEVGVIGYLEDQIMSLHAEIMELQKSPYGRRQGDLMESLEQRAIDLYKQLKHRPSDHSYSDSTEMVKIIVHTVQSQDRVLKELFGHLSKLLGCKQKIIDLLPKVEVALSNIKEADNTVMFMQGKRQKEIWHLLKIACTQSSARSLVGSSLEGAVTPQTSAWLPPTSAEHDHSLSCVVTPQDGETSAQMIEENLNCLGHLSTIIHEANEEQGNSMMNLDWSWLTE
# [2] = target: T2, IKKβ (Homo sapiens, UniProt O14920); assay: in-house DELFIA kinase assay, IKKβ; assay type: biochemical
# T2 sequence (O14920 1-756): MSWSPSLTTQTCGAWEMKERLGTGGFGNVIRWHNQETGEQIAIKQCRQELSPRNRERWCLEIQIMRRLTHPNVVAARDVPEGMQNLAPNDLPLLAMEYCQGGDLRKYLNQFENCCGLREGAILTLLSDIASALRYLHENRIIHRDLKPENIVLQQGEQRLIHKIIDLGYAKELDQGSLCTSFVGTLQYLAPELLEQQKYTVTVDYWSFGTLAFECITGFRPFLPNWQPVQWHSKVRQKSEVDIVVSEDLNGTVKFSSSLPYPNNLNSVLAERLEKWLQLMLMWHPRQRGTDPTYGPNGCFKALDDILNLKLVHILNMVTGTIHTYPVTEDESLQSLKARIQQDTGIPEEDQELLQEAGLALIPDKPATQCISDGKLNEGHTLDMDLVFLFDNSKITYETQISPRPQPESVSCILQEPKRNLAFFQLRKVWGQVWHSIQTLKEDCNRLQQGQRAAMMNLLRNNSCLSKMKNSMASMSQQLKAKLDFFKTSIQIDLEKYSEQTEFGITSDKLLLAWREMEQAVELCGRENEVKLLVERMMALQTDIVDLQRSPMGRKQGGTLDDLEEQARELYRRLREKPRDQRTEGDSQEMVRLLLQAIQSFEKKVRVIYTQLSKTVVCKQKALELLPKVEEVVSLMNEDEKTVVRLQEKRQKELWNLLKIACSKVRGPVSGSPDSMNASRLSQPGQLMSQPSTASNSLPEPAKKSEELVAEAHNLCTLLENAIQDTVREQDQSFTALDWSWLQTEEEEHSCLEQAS
Structure (SMILES),pKi [1],"IKKβ inhibition, in words [2]",pKi [2]
"Nc1n[nH]c2ccc(-c3ccnc4[nH]c(-c5cccc(OCc6ccccc6)c5)cc34)cc12 [5r SU1261, 5-(2-(3-(benzyloxy)phenyl)-1 H-pyrrolo[2,3-b]pyridin-4-yl)-1 H-indazol-3-amine]",8.00,lowest activity against IKKβ,6.17
"Nc1n[nH]c2ccc(-c3ccnc4[nH]c(-c5ccnc(OCc6ccccc6)c5)cc34)cc12 [6g SU1349, 5-(2-(2-(Benzyloxy)pyridin-4-yl)-1 H-pyrrolo[2,3-b]pyridin-4-yl)-1 H-indazol-3-amine]",7.80,–,5.47

# — patent US20260315487A1, “IKK-ALPHA INHIBITORS” (Cancer Research Technology Limited, priority 2023, published 2026)
